The values below are quoted from earlier work in US11352671B2, “Predicting therapeutic response in Parkinson's disease” (Vanderbilt University, priority 2015, dated 2022).

The structures appear in SMILES notation.

For the data set the following is noted: in vivo.

Turning to `N[C@@H](Cc1ccc(O)c(O)c1)C(=O)O` [levodopa], the “share that crosses the blood-brain barrier” value is recorded as 5-10%.
